Data: patent US10758560B2, “Methods for treating sarcopenia and frailty” (NESTEC S.A., priority 2015, dated 2020)

Columns and labels:
[1] = tested on: neuromuscular junctions (nerve and muscle co-cultures); experiment: Nerve and muscle co-cultures, stronger beta-amyloid (10 μM) induced damage of neuromuscular junctions; format: cell-based; settings: longer incubation, NRG1 30 nM and/or AdoCbl 1 nM, FIG. 5
Procedure: Nerve and muscle co-cultures were grown in vitro until neuromuscular junctions were mature. Damage was induced using beta-amyloid (Ab) incubation (10 μM) and riluzole (5 μM) was used as a positive control for preserving neuromuscular junctions from Ab-induced damage. The effect of neuregulin-1 (NRG1; 30 nM) and/or adenosylcobalamin (AdoCbl; 1 nM) on Ab-induced damage was evaluated by measuring the neuromuscular junction (NMJ) size or number. 6 wells per group were analysed and compared to a control condition (CTL) without Ab-induced damage.

[2] = tested on: neuromuscular junctions (nerve and muscle co-cultures); experiment: Nerve and muscle co-cultures, beta-amyloid (2.5 μM) induced damage of neuromuscular junctions; format: cell-based; settings: for protection from Ab-induced damage (neuromuscular junction size, number and neurite network): 1 or 100 nM, FIG. 4
Procedure: Nerve and muscle co-cultures were grown in vitro until neuromuscular junctions were mature. Damage was induced using beta-amyloid (Ab) incubation (2.5 μM) and riluzole (5 μM) was used as a positive control for preserving neuromuscular junctions from Ab-induced damage.
The effect of neuregulin-1 (NRG1; various concentrations, as specified in FIG. 2) on Ab-induced damage was evaluated by measuring the neuromuscular junction (NMJ) size. 6 wells per group were analysed and compared to a control condition. The uninjured control condition is the neuromuscular junction size without Ab treatment. All other conditions are to be compared to the Ab treatment alone which represents the reference value for damaged neuromuscular junction size.
Nerve and muscle co-cultures were grown in vitro until neuromuscular junctions were mature. Damage was induced using beta-amyloid (Ab) incubation (2.5 μM) and riluzole (5 μM) was used as a positive control for preserving neuromuscular junctions from Ab-induced damage. The effect of methylcobalamin (MeCbl; 1 or 100 nM) and adenosylcobalamin (AdenoCbl; 1 or 100 nM) on Ab-induced damage was evaluated by measuring the neuromuscular junction (NMJ) number and size, and the neurite network. 6 wells per group were analysed and compared to a control condition (CTL). The uninjured control condition is the neuromuscular junction size without Ab treatment. All other conditions are to be compared to the Ab treatment alone which represents the reference value for damaged neuromuscular junction size.

[3] = tested on: Tibialis anterior muscle fibers; experiment: Effect of vitamin B12 on skeletal muscle in vivo: tibialis anterior fiber size in aged rats; parameters: species or system rat; settings: 1 mg/kg s.c. 3 times per week for 5 months, type 2A fibers, FIG. 6
Procedure: Pre-sarcopenic rats aged 16 months were treated for 5 months with either adenosylcobalamin (AdoCbl, C0884, Sigma aldrich), methylcobalamin (MeCbl, M9756, Sigma aldrich) or saline. AdoCbl and MeCbl were injected sub-cutaneously at 1 mg/kg body weight 3 time per week. Tibialis Anterior (TA) was then dissected out and frozen for further analyses. For histology, TA was cryo-sectioned at 10 μm and stained with laminin (L9393, Sigma aldrich) to delineate fibers. Specific fiber types 1, 2A and 2B were immunolabeled subsequently with appropriate antibodies (clones BADS, BFF3, and SC71 respectively, DSHB). Images were acquired using a slide scanner (VS-120, Olympus) and analyzed using an in-house MetaXpress journal (Molecular Devices, Sunnyvale, USA). Images from old animals were compared to a group of adult healthy rats (8 months at start of experiment) injected with saline control. For gene expression analysis, total RNA was extracted using the miRNeasy Mini Kit (Qiagen) according to the manufacturer's instruction and RNA quality was checked using the Standard Sensitivity RNA Analysis Kit on a Fragment Analyzer (Advanced Analytical Technologies). Samples were then hybridized on Affymetrix Rat 230 PM 96-Array following standard Affymetrix protocol, based on the Eberwine T7 procedure. […]

HSMM human myoblasts = experiment: TNFa-induced myotube atrophy in HSMM human myoblasts (fusion index); format: cell-based; settings: TNFa 40 ng/ml for 4 days; 1 nM; FIG. 7
Procedure: HSMM human myoblasts were grown in vitro and induced to differentiate into mature myotubes. Myotube atrophy was induced by incubation with TNFa at 40 ng/ml for 4 days. MeCbl (1 nM) and AdoCbl (1 nM) were incubated together with TNFa to test their effect on induced atrophy. IGF1 is used as a positive control at 15 nM to prevent muscle atrophy. After 4 days of treatment, cells were stained for nuclei and myosin heavy chain to quantify the proportion of nuclei inside myotubes (i.e fusion index).

[4] = tested on: hind-limb skeletal muscle; experiment: Age-induced atrophy of skeletal muscle in pre-sarcopenic rats (hind-limb skeletal muscle mass); format: in vivo, rat; settings: pre-sarcopenic rats aged 16 months, 1 μg/kg s.c. 3 times per week for 5 months, versus saline controls; FIG. 3
Procedure: Pre-sarcopenic rats aged 16 months were treated for 5 months with either neuregulin-1 (NRG1; NRG1 beta EGF domain from Reprokine (catalog number RKQ02297)) or saline. NRG1 was injected sub-cutaneously at 1 μg/kg body weight 3 time per week. Hind-limb skeletal muscle mass was then evaluated and compared to a group of adult healthy rats (8 months at start of experiment) injected with saline control. […]

Row | Molecule | rescue of neuromuscular junctions (number and size) from stronger Ab-induced damage [1] | protection from Ab-induced damage (neuromuscular junction size, number and neurite network) [2] | increase in muscle fiber size [3] | protection from muscle atrophy (fusion index) (HSMM human myoblasts) | hind-limb skeletal muscle mass [4] | protection of the neuromuscular system from Ab-induced damage (neuromuscular junction size) ([2]; NRG1 at a dose of 30 nM, FIG. 2)
1 | C/C1=C2/[N-][C@H]([C@H](CC(N)=O)[C@@]2(C)CCC(=O)NC[C@@H](C)OP(=O)([O-])O[C@H]2[C@@H](O)[C@@H](n3cnc4cc(C)c(C)cc43)O[C@@H]2CO)[C@]2(C)N=C(/C(C)=C3N=C(/C=C4N=C1[C@@H](CCC(N)=O)C\4(C)C)[C@@H](CCC(N)=O)[C@]\3(C)CC(N)=O)[C@@H](CCC(N)=O)[C@]2(C)CC(N)=O.[CH2-][C@H]1O[C@@H](n2cnc3c(N)ncnc32)[C@H](O)[C@@H]1O.[Co] [adenosylcobalamin, Adenosylcobalamin] | neither neuregulin-1 nor adenosylcobalamin alone could rescue the system | able to protect the system at both doses tested | able to induce an increase in muscle fiber size |  |  | 
2 | C/C1=C2/[N-][C@H]([C@H](CC(N)=O)[C@@]2(C)CCC(=O)NC[C@H](C)OP(=O)([O-])O[C@H]2[C@@H](O)[C@@H](n3cnc4cc(C)c(C)cc43)O[C@@H]2CO)[C@]2(C)N=C(/C(C)=C3N=C(/C=C4N=C1[C@@H](CCC(N)=O)C\4(C)C)[C@@H](CCC(N)=O)[C@]\3(C)CC(N)=O)[C@@H](CCC(N)=O)[C@]2(C)CC(N)=O.[CH3-].[Co+3] [methylcobalamin, Methylcobalamin] |  | not methylcobalamin, was also able to protect the system | not methylcobalamin, was also able to induce an increase in muscle fiber size | able to protect from muscle atrophy |  | 
3 | neuregulin-1: NRG1 beta EGF domain from Reprokine (catalog number RKQ02297); SEQ ID NO: 7 (protein, listed as Homo sapiens) SHLVKCAEKEKTFCVNGGECFMVKDLSNPSRYLCKCPNEFTGDRCQNYVMASFYKHLGIEF | neither neuregulin-1 nor adenosylcobalamin alone could rescue the system |  |  |  | significantly higher mass compared to controls | able to protect the neuromuscular system from damage
